Biological target: rat acyl CoA cholesterol acyltransferase
Test: Inhibitory action on rat acyl CoA cholesterol acyltransferase (rat liver microsome crude enzyme, [1-14C]oleoyl-CoA)
Format: biochemical
Conditions: rat liver microsome fraction, pH 7.4, 37° C., 30 minutes, 30 μM oleoyl-CoA, 30 μM cholesterol; read-out: IC50 (50% inhibition concentration on the enzyme)
Description: An inhibitory action of the FO-1289 substance for acyl CoA cholesterol acyltransferase is tested according to the method of Kyoda et al. (J. Antibiotics, 44: 136 1991). A crude enzyme prepared from rat liver microsome fraction is added in the 100 mM phosphate buffer solution (pH 7.4) […] containing 300 μM bovine serum albumin. 30 μM (1-^14 C ) oleoyl-CoA (0.02 μCi) and 30 μM cholesterol (solubilized with 1/30 w/w Triton WR-1339) and incubaatd at 37° C. for 30 minutes. Total lipid is extracted with a mixture of chloroform-methanol (2:1), then each lipid is separated by thin layer chromatography (Kiesel gel GF254, developer:petroleum ether--diethyl ether--acetic acid=90:10:1). Radioactivity incorporated in the cholesterol ester fraction is analysed by RI scanner (Ambis Corp.) to assay an activity of acyl CoA cholesterol acyltransferase.

CCC(=O)OC1CCC2(C)C(CC(OC(C)=O)C3(C)Oc4cc(-c5cccnc5)oc(=O)c4C(O)C23)C1(C)COC(C)=O (stereo not shown) [FO-1289D]
IC50: 0.15 µM

CC(=O)OCC1(C)C(OC(C)=O)CCC2(C)C1CC(OC(C)=O)C1(C)Oc3cc(-c4cccnc4)oc(=O)c3C(O)C21 (stereo not shown) [FO-1289A]
IC50: 0.04 µM

CCC(=O)OC1CC2C(C)(COC(C)=O)C(OC(C)=O)CCC2(C)C2C(O)c3c(cc(-c4cccnc4)oc3=O)OC12C (stereo not shown) [FO-1289C]
IC50: 0.03 µM

CCC(=O)OCC1(C)C(OC(C)=O)CCC2(C)C1CC(OC(C)=O)C1(C)Oc3cc(-c4cccnc4)oc(=O)c3C(O)C21 (stereo not shown) [FO-1289B]
IC50: 0.1 µM
